We go through seven molecules from patent US8883779B2, “Oxazine derivatives and a pharmaceutical composition for inhibiting BACE1 containing them” (Shinogi & Co., Ltd., priority 2011, dated 2014).

SMILES strings stand for the structures.

Series [1] concerns the target T1, CYP3A4 enzyme (enzyme expressed in Escherichia coli) (Homo sapiens, UniProt P08684).
T1 construct: host or cells: Escherichia coli
As to the kind of experiment: CYP3A4 fluorescent MBI test. Format: in vitro ADME. Conditions: 7-BFC substrate, pre-reaction time 0 or 30 minutes. As for the experimental part: The CYP3A4 fluorescent MBI test is a test of investigating enhancement of CYP3A4 inhibition of a compound by a metabolism reaction. 7-benzyloxytrifluoromethylcoumarin (7-BFC) is debenzylated by the CYP3A4 enzyme (enzyme expressed in Escherichia coli) and 7-hydroxytrifluoromethylcoumarin (7-HFC) is produced as a fluorescing metabolite. The test is performed using 7-HFC production reaction as an index.
The reaction conditions are as follows: substrate, 5.6 μmol/L 7-BFC; pre-reaction time, 0 or 30 minutes; substrate reaction time, 15 minutes; reaction temperature, 25° C. […]
An enzyme in a K-Pi buffer (pH 7.4) and a compound of the present invention solution as a pre-reaction solution were added to a 96-well plate at the composition of the pre-reaction. […] Fluorescent values of 7-HFC as a metabolite were measured in each index reaction plate with a fluorescent plate reader. […]
The sample adding DMSO to a reaction system instead of compound of the present invention solution was adopted as a control (100%) because DMSO is used as a solvent to dissolve a compound of the present invention. Remaining activity (%) was calculated at each concentration of the compound of the present invention added as the solution, and IC50 was calculated by reverse-presumption by a logistic model using a concentration and an inhibition rate. […]

The next series addresses T2, Recombinant human BACE1 (Homo sapiens, UniProt P56817).
T2 construct: purchased R&D Systems
Description: Assay of BACE1 inhibiting activity. Format: biochemical. The note with it: Recombinant human BACE1 7.4 nmol/L, substrate peptide 18 nmol/L, pH 5.0, 30° C., 3.5 hours; read-out: 50% inhibitory concentration against the enzymatic activity (IC50). As for the experimental part:
48.5 μL of substrate peptide solution (Biotin-XSEVNLDAEFRHDSGC-Eu: X=ε-amino-n-capronic acid, Eu=Europium cryptate) was added to each well of 96-hole half-area plate (a black plate: Costar), and after addition of 0.5 μl of the compound of the present invention (DMSO solution) and 1 μl of Recombinant human BACE1(R&D Systems), the reaction mixture was incubated at 30° C. for 3.5 hours. The substrate peptide was synthesized by reacting Cryptate TBPCOOH mono SMP (CIS bio international) with Biotin-XSEVNLDAEFRHDSGC (Peptide Institute, Inc.). The final concentrations of the substrate peptide and Recombinant human BACE1 were adjusted to 18 nmol/L and 7.4 nmol/L, respectively, and the reaction was performed in sodium acetate buffer (50 mmol/L sodium acetate, pH 5.0, 0.008% Triton X-100).
After the incubation for reaction, 50 μl of 8.0 μg/ml Streptavidin-XL665 (CIS bio international) dissolved in phosphate buffer (150 mmol/L K2 HPO4—KH2 PO4, pH 7.0, 0.008% Triton X-100, 0.8 mol/L KF) was added to each well and left stand at 30° C. for 45 minutes. After then, fluorescence intensity was measured (excitation wavelength: 320 nm, measuring wavelength: 620 nm and 665 nm) using Wallac 1420 multilabel counter (Perkin Elmer life sciences).

Series [2] is described as follows: Solubility test (turbidity, JP-I / JP-II medium). Type of series: physicochemical. Conditions: pH 6.8, aqueous buffer, kinetic from dmso stock, 2% DMSO solution, turbidity after 4 hours, read-out: solubility assessed by 3 stages.
Series [3] in a line: Metabolism stability test. Type of series: in vitro ADME. The note with it: human liver microsomes 0.5 mg protein/mL, 1 mmol/L NADPH, 37° C., 30 minutes. As for the experimental part: Using a commercially available pooled human liver microsomes, a compound of the present invention is reacted for a constant time, a remaining rate is calculated by comparing a reacted sample and an unreacted sample, thereby, a degree of metabolism in liver was assessed.
A reaction was performed (oxidative reaction) at 37° C. for 0 minute or 30 minutes in the presence of 1 mmol/L NADPH in 0.2 mL of a buffer (50 mmol/L Tris-HCl pH 7.4, 150 mmol/L potassium chloride, 10 mmol/L magnesium chloride) containing 0.5 mg protein/mL of human liver microsomes. After the reaction, 50 μL of the reaction solution was added to 100 μL of a methanol/acetonitrile=1/1 (v/v), mixed and centrifuged at 3000 rpm for 15 minutes. The compound of the present invention in the supernatant was quantified by LC/MS/MS, and a remaining amount of the compound of the present invention after the reaction was calculated, letting a compound amount at 0 minute reaction time to be 100%.
For orientation: Microsomes from liver hold many membrane-bound enzymes, among them those of drug oxidation.

In a further series the target is T3, CYP3A4 (Homo sapiens, UniProt P08684).
T3 construct: The commercially available pooled human liver microsomes were used; from tissue; host or cells: pooled human liver microsomes
Description: CYP inhibition test, terfenadine hydroxylation. Format: in vitro ADME. The note with it: pooled human liver microsomes, 1 μmol/L terfenadine. An excerpt: (§1) The test is to assess the inhibitory effect of a compound of the present invention towards typical substrate metabolism reactions on CYP enzymes in human liver microsomes. The commercially available pooled human liver microsomes were used.
(§2) The marker reactions on human main five CYP enzymes (CYP1A2, 2C9, 2C19, 2D6, and 3A4) were used as follows; 7-ethoxyresorufin O-deethylation (CYP1A2), tolbutamide methyl-hydroxylation (CYP2C9), mephenyloin 4′-hydroxylation (CYP2C19), dextromethorphan O-demethylation (CYP2D6), and terfenadine hydroxylation (CYP3A4 […]
(§3) Five kinds of substrates, human liver microsomes, or a compound of the present invention in 50 mmol/L Hepes buffer was added to a 96-well plate at the composition as described above as a reaction solution. […] After the centrifugation at 3000 rpm for 15 minutes, resorufin (CYP1A2 metabolite) in the supernatant was quantified by a fluorescent plate reader, and hydroxytolbutamide (CYP2C9 metabolite), 4′-hydroxymephenyloin (CYP2C19 metabolite), dextrorphan (CYP2D6 metabolite), and terfenadine alcohol metabolite (CYP3A4 metabolite) in the supernatant were quantified by LC/MS/MS. […]

Another series has as its target T4, CYP2C19 (Homo sapiens, UniProt P33261).
T4 construct: The commercially available pooled human liver microsomes were used; from tissue; host or cells: pooled human liver microsomes
Description: CYP inhibition test, mephenyloin 4'-hydroxylation. Format: in vitro ADME. Conditions: pooled human liver microsomes, 50 μmol/L S-mephenyloin.
Source text: as §1, §2, §3

The target of another series is T5, CYP2D6 (Homo sapiens, UniProt P10635).
T5 construct: The commercially available pooled human liver microsomes were used; from tissue; host or cells: pooled human liver microsomes
As to the kind of experiment: CYP inhibition test, dextromethorphan O-demethylation. Format: in vitro ADME. The note with it: pooled human liver microsomes, 5 μmol/L dextromethorphan.
Source text: as §1, §2, §3

A further series deals with T6, CYP1A2 (Homo sapiens, UniProt P05177).
T6 construct: The commercially available pooled human liver microsomes were used; from tissue; host or cells: pooled human liver microsomes
T6 sequence (P05177 1-516): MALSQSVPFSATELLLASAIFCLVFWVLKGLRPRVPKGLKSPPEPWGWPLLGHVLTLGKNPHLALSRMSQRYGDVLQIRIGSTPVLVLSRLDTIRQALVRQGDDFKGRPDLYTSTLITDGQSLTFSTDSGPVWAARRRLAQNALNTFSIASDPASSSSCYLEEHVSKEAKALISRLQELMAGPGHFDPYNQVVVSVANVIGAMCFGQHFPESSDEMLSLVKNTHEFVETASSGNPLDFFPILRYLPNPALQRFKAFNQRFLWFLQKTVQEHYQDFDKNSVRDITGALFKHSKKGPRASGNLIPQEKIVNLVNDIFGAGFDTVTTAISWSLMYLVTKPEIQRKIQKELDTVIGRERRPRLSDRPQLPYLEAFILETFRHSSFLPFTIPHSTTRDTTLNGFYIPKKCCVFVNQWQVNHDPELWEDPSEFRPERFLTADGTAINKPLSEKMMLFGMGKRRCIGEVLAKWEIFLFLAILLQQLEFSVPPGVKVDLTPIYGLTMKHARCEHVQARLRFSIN
Description: CYP inhibition test, 7-ethoxyresorufin O-deethylation. Format: in vitro ADME. Conditions: pooled human liver microsomes, 0.5 μmol/L ethoxyresorufin.
Source text: as §1, §2, §3

A further series concerns the target T7, CYP2C9 (Homo sapiens, UniProt P11712).
T7 construct: The commercially available pooled human liver microsomes were used; from tissue; host or cells: pooled human liver microsomes
Description: CYP inhibition test, tolbutamide methyl-hydroxylation. Type of series: in vitro ADME. The note with it: pooled human liver microsomes, 100 μmol/L tolbutamide.
Source text: as §1, §2, §3

T2 sequence (P56817 46-501): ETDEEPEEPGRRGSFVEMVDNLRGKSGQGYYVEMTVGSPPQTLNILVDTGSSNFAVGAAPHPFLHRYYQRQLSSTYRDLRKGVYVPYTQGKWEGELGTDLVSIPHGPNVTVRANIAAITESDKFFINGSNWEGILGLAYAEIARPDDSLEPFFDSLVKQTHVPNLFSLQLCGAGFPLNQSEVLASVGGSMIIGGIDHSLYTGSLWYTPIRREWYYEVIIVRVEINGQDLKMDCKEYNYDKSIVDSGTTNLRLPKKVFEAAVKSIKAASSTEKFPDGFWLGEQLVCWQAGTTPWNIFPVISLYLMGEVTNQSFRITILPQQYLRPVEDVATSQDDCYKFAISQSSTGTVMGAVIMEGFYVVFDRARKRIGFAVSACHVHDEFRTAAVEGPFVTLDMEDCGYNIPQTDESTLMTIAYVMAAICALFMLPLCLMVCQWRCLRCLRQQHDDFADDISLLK
T3 sequence (P08684 whole entry): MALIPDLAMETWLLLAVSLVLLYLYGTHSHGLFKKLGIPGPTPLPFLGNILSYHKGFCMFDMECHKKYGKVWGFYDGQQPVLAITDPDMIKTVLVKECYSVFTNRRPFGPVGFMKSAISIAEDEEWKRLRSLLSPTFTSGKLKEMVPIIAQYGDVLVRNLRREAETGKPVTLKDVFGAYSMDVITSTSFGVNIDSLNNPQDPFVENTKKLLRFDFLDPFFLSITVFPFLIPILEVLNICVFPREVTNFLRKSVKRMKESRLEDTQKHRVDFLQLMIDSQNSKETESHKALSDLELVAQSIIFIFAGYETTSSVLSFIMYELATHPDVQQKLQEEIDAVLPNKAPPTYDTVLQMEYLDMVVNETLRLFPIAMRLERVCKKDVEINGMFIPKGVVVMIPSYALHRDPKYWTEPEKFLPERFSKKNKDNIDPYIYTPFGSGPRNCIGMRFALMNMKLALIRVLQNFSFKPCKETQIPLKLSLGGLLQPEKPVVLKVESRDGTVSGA
T1 sequence (P08684 whole entry): as above
T7 sequence (P11712 whole entry): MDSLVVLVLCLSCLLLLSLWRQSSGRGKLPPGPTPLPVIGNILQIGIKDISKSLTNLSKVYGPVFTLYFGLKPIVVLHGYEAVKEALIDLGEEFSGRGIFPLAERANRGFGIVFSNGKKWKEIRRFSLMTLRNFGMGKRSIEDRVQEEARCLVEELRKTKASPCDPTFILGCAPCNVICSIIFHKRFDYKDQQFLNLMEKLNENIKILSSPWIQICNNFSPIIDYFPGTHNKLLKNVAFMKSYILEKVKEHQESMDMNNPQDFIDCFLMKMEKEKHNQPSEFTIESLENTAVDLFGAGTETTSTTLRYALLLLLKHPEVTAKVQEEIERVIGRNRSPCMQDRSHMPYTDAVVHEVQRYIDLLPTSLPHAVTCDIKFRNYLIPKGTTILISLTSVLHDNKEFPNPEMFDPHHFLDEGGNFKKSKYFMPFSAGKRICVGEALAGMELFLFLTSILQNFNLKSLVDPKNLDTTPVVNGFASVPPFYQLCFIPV
T4 sequence (P33261 whole entry): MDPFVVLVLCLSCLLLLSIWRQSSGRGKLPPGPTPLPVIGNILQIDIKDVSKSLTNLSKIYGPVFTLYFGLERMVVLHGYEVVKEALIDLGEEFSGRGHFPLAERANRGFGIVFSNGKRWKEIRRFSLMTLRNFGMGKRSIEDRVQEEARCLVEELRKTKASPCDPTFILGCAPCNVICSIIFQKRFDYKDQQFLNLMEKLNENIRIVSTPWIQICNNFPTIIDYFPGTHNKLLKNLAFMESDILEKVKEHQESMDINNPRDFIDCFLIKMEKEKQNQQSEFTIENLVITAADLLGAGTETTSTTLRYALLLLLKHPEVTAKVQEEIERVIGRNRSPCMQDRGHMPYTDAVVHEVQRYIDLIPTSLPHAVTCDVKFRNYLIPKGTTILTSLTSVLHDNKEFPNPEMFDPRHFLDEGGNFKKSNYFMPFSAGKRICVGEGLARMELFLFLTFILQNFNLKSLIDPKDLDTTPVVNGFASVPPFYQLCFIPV
T5 sequence (P10635 whole entry): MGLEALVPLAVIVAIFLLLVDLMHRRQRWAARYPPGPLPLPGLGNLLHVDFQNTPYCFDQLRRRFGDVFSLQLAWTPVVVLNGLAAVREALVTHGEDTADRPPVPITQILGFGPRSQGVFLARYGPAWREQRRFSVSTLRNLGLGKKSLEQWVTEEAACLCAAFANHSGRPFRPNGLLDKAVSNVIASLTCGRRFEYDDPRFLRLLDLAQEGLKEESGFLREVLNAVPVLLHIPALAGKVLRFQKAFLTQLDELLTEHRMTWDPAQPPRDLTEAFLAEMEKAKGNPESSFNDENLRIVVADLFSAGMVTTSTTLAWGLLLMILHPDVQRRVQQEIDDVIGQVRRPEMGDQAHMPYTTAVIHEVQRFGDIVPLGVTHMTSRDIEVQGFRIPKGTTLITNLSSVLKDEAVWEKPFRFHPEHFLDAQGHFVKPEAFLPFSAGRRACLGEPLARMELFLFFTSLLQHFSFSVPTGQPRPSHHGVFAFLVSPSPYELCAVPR

As to `CC1=C[C@@](C)(c2cc(NC(=O)c3cnc(OCF)cn3)ccc2F)N=C(N)O1` [Compound I-1], in series [1], the “CYP3A4 MBI: difference of IC50 without and with preincubation” value is reported as “(−) (the difference is 3 μM or less)”.

For `C[C@@]1(c2cc(NC(=O)c3ccc(C#N)cn3)ccc2F)C=C(C(F)F)OC(N)=N1` [Compound I-2], the IC50 at Recombinant human BACE1 came to 5.3 nM.

On to `C[C@@]1(c2cc(NC(=O)c3ccc(C#N)cn3)ccc2F)C=C(CO)OC(N)=N1` [Compound I-4], for which the IC50 on Recombinant human BACE1 turned out to be 10.6 nM.

What is called solubility is the concentration that dissolves in the medium under given conditions. For `CC1=C[C@@](C)(c2cc(NC(=O)c3ccc(C(F)F)cn3)ccc2F)N=C(N)O1` [Compound I-5], the solubility at 4 h in series [2] is over 40 µM.

In the case of `C[C@@]1(c2cc(NC(=O)c3cnc(OC(F)F)cn3)ccc2F)C=COC(N)=N1` [Compound I-8], in [3], the “remaining amount of the compound after the reaction” value was 99%. For the same molecule, on Recombinant human BACE1, the IC50 worked out at 10.3 nM.

As for `C[C@@]1(c2cc(NC(=O)c3ncc(C#N)cc3F)ccc2F)C=COC(N)=N1` [Compound I-9], the IC50 at CYP3A4, against CYP2C19, at CYP2D6, on CYP1A2 and against CYP2C9 was over 20000 nM in each case.

As to `CC1=C[C@@](C)(c2cc(NC(=O)c3ccc(C#N)cn3)ccc2Cl)N=C(N)O1` [Compound I-11], the IC50 at Recombinant human BACE1 turned out to be 64 nM.
